The numbers were not newly measured in US6524619B2, “Dosage forms useful for modifying conditions and functions associated with hearing loss and/or tinnitus” (Chronorx, Inc., priority 2000, dated 2003), which cites them from elsewhere.

Like-named read-outs stand apart in the source and are kept apart here.

Series [1] has as its system NMDA receptor. Particulars: rat, iontophoresis.
Assay in series [2]: not given
The source holds these as a separate data set.

Series [3] relates to tinnitus and SNHL. As to conditions: marginally Zn^2+ deficient elderly adults.
The test system of series [4] is peritoneal macrophages. As to conditions: mice.
In series [5] the test system is RBC GSH system. As to conditions: selenium treatment.
The conditions of series [6]: levels up to 1 mg per day.
For series [7] the following is noted: one small study.
For series [8], the system named is GSHPx. As to conditions: within 30 minutes, exogenously administered.
The conditions of series [9]: 3 mg ingested, within 20 min.
In series [10] the test system is outer cochlear hair cells. Particulars: rat, postmortem.
For series [11] the following is noted: 80 mg orally.
Assay in series [12]: not given
This is another data set of the same source.

For series [13] the following is noted: 100 mg oral.
Assay in series [14]: not given
This is another data set of the same source.

The conditions of series [15]: humans, 200 mg oral dose.
The conditions of series [16]: rats, oral (C14) LA.
Series [17] has as its system bovine aortic endothelial cells (BAECs). Particulars: LA added before AGE exposure.
Series [18] has as its system hydrogen peroxide-induced platelet aggregation.
Series [19] relates to blood viscosity and red cell membrane lipid peroxidation. Particulars: 300 mg tid 3 months, Type 2 diabetes mellitus.
Series [20] concerns noise-induced permanent hearing threshold shifts (NIPTS). As to conditions: 167 mg elemental Mg^2+ daily, 2 months, 300 recruits.
For series [21] the following is noted: in vivo.
For series [22], the system named is GSHPx. As to conditions: following supplementation.
In series [23] the test system is red cell membrane. As to conditions: 300 mg tid after meals for 3 months.
The test system of series [24] is senile deafness. Particulars: 1 microgram/day for 6 to 10 months, 12 patients suspected of abnormal bone metabolism.

Take `COC1=C(OC)C(=O)C(C/C=C(\C)CC/C=C(\C)CC/C=C(\C)CC/C=C(\C)CC/C=C(\C)CC/C=C(\C)CC/C=C(\C)CC/C=C(\C)CC/C=C(\C)CCC=C(C)C)=C(C)C1=O` [CoQ10, Coenzyme Q10]: the “increase of CoQ10 in plasma” value (granular preparations) is on record as 168%. Moreover, the “elevation of CoQ10 in plasma” value (supplemental oil-based capsules) is reported as 178%.

For the molecule `[Zn+2]` [Zn^2+, Zinc], the “excitatory response of the cortical striatum” value (from here on “excitatory response”) in series [1] was “potent attenuation”. For the same molecule, the “increase of mean plasma Zn^+2 above pre-load levels” value in [2] (11-fold increase in intake) is given as 37%. In series [2] (in vivo), the “ingested Zn^+2 entering the plasma” value was “About 37%” and the “time by which gastrointestinal absorption is essentially completed” value was not above 4 h. Also, in [3], the “reduction of tinnitus and SNHL” value is “about one-third”.

On to `[Se]` [Selenium], for which, in [4], the “increase in GSH content in peritoneal macrophages” value is recorded as 36%; the “increase in GSHPx activity in peritoneal macrophages” value is listed as 30%; the “reduction in cell-mediated oxidation of LDL and aortic atherosclerotic lesions” value is on record as 46%. In series [5], the “elevation of RBC GSHPx” value was 64% and the “reduction in the RBC oxidized GSH content” value is reported as 39%. Also, in series [5] (RBC), the “increase in GSH content” value is on record as 11% and the “increase in glutathione reductase activities” value is 57%.

As to `[Cr]` [Cr, Chromium], the signs of toxicity result in series [6] was “no documented signs of toxicity”. Also, in series [7], the “average apparent net absorption of Cr” value is listed as 1.8%.

On to `COc1ccc2[nH]cc(CCNC(C)=O)c2c1` [Melatonin, N-acetyl-5-methoxytryptamine], for which the “rise in GSHPx activity in the brain” value in series [8] is 2 fold. In addition, the serum melatonin in series [9] is 3561 ± 1201 pg/mL. Also, the “excitatory response” value in [1] is “potent attenuation”. Further, the “prolongation of hair cell activity after death compared to untreated animals” value in [10] is reported as “up to 7 times”. In series [11], the “absorption constant (ka)” value is 1.72 h⁻¹, the “elimination constant (kel)” value was 0.87 h⁻¹, the “time of peak serum melatonin after administration” value is 60 to 150 min and the “time peak serum melatonin remains stable” value is “approximately 1.5 hours”.

Take `NC(=O)c1cccnc1` [standard nicotinamide, nicotinamide]: in [12] (10-fold increase in the dose), the “increase in the AUC” value was 62 fold. Also, the “AUC relative to Enduramide” value in [12] (higher doses) is 1.7 times.

d5-CoQ10: the “time of second plasma peak after dosing” value in [13] (most of the subjects) is 24 h. For the same molecule, the “mean plasma CoQ10 level peak” value in series [13] (sixteen healthy male subjects) is 1.004+/−0.37 micrograms/ml.

With `CC(C)(C)[C@]1(O)CC2OC(=O)CC23C(=O)OC2OC(=O)[C@H](O)C231` (some centres unmarked) [Bilobalide], the “bioavailability coefficient (FAUC), mean” value in [14] (given orally during fasting) is 0.79(+/−0.3).

Turning to `O=C(O)CCCCC1CCSS1` (centres unmarked) [LA, 1,2-dithiolane-3-pentanoic acid], the absolute bioavailability in series [15] is listed as 29.1+/−10.3%. Moreover, the “plasma concentration-time curve area (FAUC) relative to intravenous administration” value in [16] is on record as 66%. Also, the “depletion of GSH and ascorbic acid” value in series [17] is “completely prevents depletion of GSH and ascorbic acid”.

In the case of `CC1C(=O)OC2C(O)C34C5CC(C(C)(C)C)C36C(OC(=O)C6O)OC4(C(=O)O5)C12O` (centres unmarked) [Ginkgolide B], the “bioavailability coefficient (FAUC), mean” value in [14] (in vivo, po) was 0.88(+/−0.21).

As to `Cc1c(C)c2c(c(C)c1OC(=O)c1cccnc1)CC[C@@](C)(CCC[C@H](C)CCC[C@H](C)CCCC(C)C)O2` [Alpha-tocopherol nicotinate, alpha tocopherol nicotinate], the “inhibitory effect upon hydrogen peroxide-induced platelet aggregation” value in series [18] was “greater than that of either vitamin E alone or the simultaneous use of vitamin E and nicotinic acid”. Besides, the “reduction of malondialdehyde (MDA) in red cell membrane” value in [19] was 0.17 ± 0.13 nmol/L. In addition, in series [19] (gamma=1.5 s(−1)), the “reduction of blood viscosity” value is −2.23 +/−2.82.

Consider `[Mg+2]` [Mg^2+, Magnesium], for which the “NIPTS frequency and severity” value in series [20] was “significantly more frequent and more severe in the placebo group”. The “excitatory response” value in series [1] is given as “potent attenuation”. The “maximum intestinal bulk absorption” value in series [21] is given as 8 mEq per meal.

For `O=C(O)c1cccnc1` [Nicotinic acid, reference compound], the “inhibitory effect upon hydrogen peroxide-induced platelet aggregation” value in series [18] is listed as “no inhibitory effect”.

Regarding `Cc1c(C)c2c(c(C)c1O)CC[C@@](C)(CCC[C@H](C)CCC[C@H](C)CCCC(C)C)O2` [alpha-tocopherol, D, alpha-tocopherol], the GSHPx activities entry in series [22] was “increase as much as twofold”. For the same molecule, in series [23], the “reduction of lipid peroxidation stress in red cell membrane (MDA)” value is 0.17 ± 0.13 nmol.

In the case of `C=C1/C(=C\C=C2/CCC[C@]3(C)[C@@H]([C@H](C)CCCC(C)C)CC[C@@H]23)C[C@@H](O)C[C@@H]1O` [1 alpha-(OH)D3], the hearing improvement entry in series [24] is recorded as “hearing improvement in six ears (four patients)”.

Take `C[C@@H]1C(=O)O[C@H]2C[C@@]34[C@H]5C[C@@H](C(C)(C)C)[C@]36[C@@H](OC(=O)[C@@H]6O)O[C@@]4(C(=O)O5)[C@]21O` [Ginkgolide A]: the “bioavailability coefficient (FAUC), mean” value in [14] (given orally during fasting) is on record as 0.80 (+/−0.09).
